# According to the supplement of paper PMC11061612:
# Assays:
# [1] = compound: CC1=CN2[C@@H](C1)C=NC3=CC(=C(C=C3C2=O)OC)OCCCCCOC4=C(C=C5C(=C4)N=C[C@@H]6CC(=CN6C5=O)C)OC [SG3199]; conditions: max 0.001 µM
# Method in brief: (§1)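 Following 24 hours at 37°C and 5% CO2, cancer cell lines in 1536-well plates with 7.5 μl DMEM/F12 or RPMI and 10% FBS were dosed for 72 hours, final DMSO typically being 0.2%. CellTiter-Glo 2.0 luminescence, scaled between blank-well and DMSO-well means, gave the viability readout. Dose responses were fitted to a two-parameter logistic curve with a non-linear mixed effects model, and the single-agent IC50 was derived from this fit.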
# [2] = compound: CC(C)n1c(=O)n(C)c2cnc3cc(F)c(-c4ccc(OCCCN5CCCCC5)nc4)cc3c21 [AZD1390]; conditions: max 0.3 µM
# Method in brief: as §1
# [3] = compound: COc1cccc2c1C(=O)c1c(O)c3c(c(O)c1C2=O)C[C@@](O)(C(=O)CO)C[C@@H]3O[C@H]1C[C@H](N)[C@H](O)[C@H](C)O1 [Doxorubicin]; conditions: max 1 µM
# Method in brief: as §1
# [4] = compound: Cc1cc2ncnn2cc1Nc1ncc2c(n1)n(C1CCOCC1)c(=O)n2C [AZD7648]; conditions: max 10 µM
# Method in brief: as §1
# [5] = compound: CC1=C(C(=CC=C1)Cl)NC(=O)C2=CN=C(S2)NC3=CC(=NC(=N3)C)N4CCN(CC4)CCO [Dasatinib]; conditions: max 2 µM
# Method in brief: as §1
# [6] = compound: O=C(c1cc(Cc2n[nH]c(=O)c3ccccc23)ccc1F)N1CCN(C(=O)C2CC2)CC1 [Olaparib]
# Method in brief: as §1
# [7] = compound: Cc1c2c(nn1C)CSCc1cc(n(C)n1)CSc1cc(c3ccccc3c1)OCCCc1c(C(=O)O)n(C)c3c-2c(Cl)ccc13 [AZD5991]; conditions: max 1 µM
# Method in brief: as §1
# [8] = compound: CN(C)CCCOc1ccc(-c2ccc3ncc4c(c3c2)n(C2CCOCC2)c(=O)n4C)cn1 [AZD0156]; conditions: max 3 µM
# Method in brief: as §1
# [9] = compound: C=CCn1c(=O)c2cnc(Nc3ccc(N4CCN(C)CC4)cc3)nc2n1-c1cccc(C(C)(C)O)n1 [AZD1775]; conditions: max 3 µM
# Method in brief: as §1
# [10] = compound: COc1cc(Nc2ncc3c(n2)-c2ccc(Cl)cc2C(c2c(F)cccc2OC)=NC3)ccc1C(=O)O [Alisertib]; conditions: max 10 µM
# Method in brief: as §1
# [11] = compound: COc1cc2ncnc(Nc3ccc(F)c(Cl)c3)c2cc1OCCCN1CCOCC1 [Gefitinib]; conditions: max 10 µM
# Method in brief: as §1
# [12] = compound: C[C@@H](Oc1cc(-c2cnn(C3CCNCC3)c2)cnc1N)c1c(Cl)ccc(F)c1Cl [Crizotinib]; conditions: max 10 µM
# Method in brief: as §1
# [13] = compound: CCc1c2c(nc3ccc(O)cc13)-c1cc3c(c(=O)n1C2)COC(=O)[C@]3(O)CC [SN-38]; conditions: max 0.3 µM
# Method in brief: as §1
# [14] = compound: C[C@@H]1COCCN1C2=NC(=NC(=C2)C3(CC3)[S@](=N)(=O)C)C4=C5C=CNC5=NC=C4 [AZD6738]; conditions: max 10 µM
# Method in brief: as §1
# [15] = compound: CS(=O)(=O)CCNCc1ccc(-c2ccc3ncnc(Nc4ccc(OCc5cccc(F)c5)c(Cl)c4)c3c2)o1 [Lapatinib]; conditions: max 10 µM
# Method in brief: as §1
# [16] = compound: Cn1cnc2c(F)c(Nc3ccc(Br)cc3Cl)c(C(=O)NOCCO)cc21 [Selumetinib]
# Method in brief: as §1
# [17] = compound: COc1cccc(OCCCN)c1-c1cc(Nc2cnc(C#N)cn2)n[nH]1 [Prexasertib]; conditions: max 1 µM
# Method in brief: as §1
# [18] = compound: CN(CC[C@H](CSC1=CC=CC=C1)NC2=C(C=C(C=C2)S(=O)(=O)NC(=O)C3=CC=C(C=C3)N4CCC(CC4)[C@H](C5=CC=CC=C5C6=CC=C(C=C6)Cl)O)S(=O)(=O)C(F)(F)F)CCO [AZD4320]; conditions: max 1 µM
# Method in brief: as §1
# [19] = compound: C[C@@H](c1ccc2nccn2c1)n1nnc2ncc(-c3cnn(C)c3)nc21 [Savolitinib]; conditions: max 1 µM
# Method in brief: as §1
# [20] = compound: CCN(CCO)CCCOc1ccc2c(Nc3cc(CC(=O)Nc4cccc(F)c4)[nH]n3)ncnc2c1 [AZD2811]; conditions: max 1 µM
# Method in brief: as §1
# [21] = compound: C1CN(CCC1(C(=O)N[C@@H](CCO)C2=CC=C(C=C2)Cl)N)C3=NC=NC4=C3C=CN4 [Capivasertib]
# Method in brief: as §1
# [22] = compound: CC1(C)CCC(CN2CCN(c3ccc(C(=O)NS(=O)(=O)c4ccc(NCC5CCOCC5)c([N+](=O)[O-])c4)c(Oc4cnc5[nH]ccc5c4)c3)CC2)=C(c2ccc(Cl)cc2)C1 [Venetoclax]; conditions: max 1 µM
# Method in brief: as §1
# [23] = compound: CC(=O)c1c(C)c2cnc(Nc3ccc(N4CCNCC4)cn3)nc2n(C2CCCC2)c1=O [Palbociclib]; conditions: max 10 µM
# Method in brief: as §1
# [24] = compound: Cc1nc(-c2cn3c(n2)-c2ccc(-c4cnn(C(C)(C)C(N)=O)c4)cc2OCC3)n(C(C)C)n1 [Taselisib]; conditions: max 10 µM
# Method in brief: as §1
# [25] = compound: CC(=O)Nc1cccc(-n2c(=O)n(C3CC3)c(=O)c3c(Nc4ccc(I)cc4F)n(C)c(=O)c(C)c32)c1 [Trametinib]; conditions: max 1 µM
# Method in brief: as §1
# [26] = compound: COc1nnc2ccc(N3CCC(c4ccc(OCCN5CCN(C)C(=O)[C@H]5C)cc4)CC3)nn12 [AZD5153]; conditions: max 1 µM
# Method in brief: as §1
# [27] = compound: C[C@@H](Nc1cc(F)cc(F)c1)c1cc(C(=O)N(C)C)cc2c(=O)cc(N3CCOCC3)oc12 [AZD8186]; conditions: max 3 µM
# Method in brief: as §1
Cell Line,"IC50, cell viability 72 h [1]","IC50, cell viability 72 h [2]","IC50, cell viability 72 h [3]","IC50, cell viability 72 h [4]","IC50, cell viability 72 h [5]","IC50, cell viability 72 h ([6]; max 10 µM)","IC50, cell viability 72 h [7]","IC50, cell viability 72 h [8]","IC50, cell viability 72 h [9]","IC50, cell viability 72 h [10]","IC50, cell viability 72 h [11]","IC50, cell viability 72 h [12]","IC50, cell viability 72 h [13]","IC50, cell viability 72 h [14]","IC50, cell viability 72 h [15]","IC50, cell viability 72 h ([16]; max 10 µM)","IC50, cell viability 72 h [17]","IC50, cell viability 72 h [18]","IC50, cell viability 72 h [19]","IC50, cell viability 72 h [20]","IC50, cell viability 72 h ([21]; max 10 µM)","IC50, cell viability 72 h [22]","IC50, cell viability 72 h [23]","IC50, cell viability 72 h [24]","IC50, cell viability 72 h [25]","IC50, cell viability 72 h [26]","IC50, cell viability 72 h [27]","IC50, cell viability 72 h ([16]; max 3 µM)","IC50, cell viability 72 h ([21]; max 3 µM)","IC50, cell viability 72 h ([6]; max 3 µM)"
MFM-223 (Breast Carcinoma),> 1 nM,> 300 nM,> 1000 nM,> 10000 nM,> 2000 nM,> 10000 nM,> 1000 nM,> 3000 nM,2300 nM,633 nM,> 10000 nM,> 10000 nM,> 300 nM,5200 nM,> 10000 nM,> 10000 nM,59.9 nM,> 1000 nM,> 1000 nM,> 1000 nM,1620 nM,> 1000 nM,> 10000 nM,1160 nM,> 1000 nM,> 1000 nM,> 3000 nM,,,
MOLT-16 (T-Lymphoblastic Leukemia),> 1 nM,> 300 nM,46.7 nM,> 10000 nM,> 2000 nM,5600 nM,51.5 nM,> 3000 nM,168 nM,29.1 nM,> 10000 nM,1770 nM,2.33 nM,557 nM,6350 nM,> 10000 nM,11.2 nM,16.3 nM,> 1000 nM,12.4 nM,811 nM,308 nM,420 nM,1110 nM,> 1000 nM,76.2 nM,> 3000 nM,,,
NCI-H847 (Small Cell Lung Carcinoma),> 1 nM,,281 nM,5200 nM,,6860 nM,665 nM,> 3000 nM,143 nM,10.1 nM,,,16 nM,901 nM,,,15.1 nM,15.6 nM,,58.4 nM,,> 1000 nM,,2330 nM,> 1000 nM,,1950 nM,> 3000 nM,> 3000 nM,
P12-ICHIKAWA (T-Lymphoblastic Leukemia),,> 300 nM,,> 10000 nM,> 2000 nM,,252 nM,> 3000 nM,262 nM,38.1 nM,> 10000 nM,2230 nM,1.61 nM,1020 nM,> 10000 nM,> 10000 nM,17.3 nM,37.3 nM,> 1000 nM,15.4 nM,3170 nM,> 1000 nM,1600 nM,> 10000 nM,> 1000 nM,89.1 nM,> 3000 nM,,,> 3000 nM
